The record followed here is PubChem BioAssay (NCI).

Some test systems named below: RPMI-8226 leukemia; A549 NSCLC; HCT-116 colon; OVCAR-3 ovarian; SK-MEL-2 melanoma; NCI-H522 lung; SNB-19 CNS; OVCAR-4 ovarian; OVCAR-5 ovarian; NCI-H460 lung; SN12C renal; SR leukemia; SW-620 colon; NCI-H23 lung; SNB-75 CNS; HOP-92 NSCLC; HT29 colon; SF-539 CNS; A498 renal.
Experiment in all cases: NCI anticancer screen, dose series, 48 h

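Growth conditions: 96-well plates. Treatment: test compound, 48 hours, 5 concentrations. Analysis: linear interpolation between bracketing concentrations; unreached endpoints set to highest concentration. TGI denotes the concentration required for complete inhibition of growth.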

Take `CCCCS(=O)CCC(N)P(=O)(O)O` (stereo not drawn): the TGI in the assay on RPMI-8226 leukemia, with A549 NSCLC, in the assay on HCT-116 colon, in the assay with OVCAR-3 ovarian, with SK-MEL-2 melanoma and in the assay with NCI-H522 lung was more than 100 µM throughout. In addition, the TGI with SNB-19 CNS, in the assay on OVCAR-4 ovarian, in the assay with OVCAR-5 ovarian, in the assay with NCI-H460 lung, with SN12C renal and in the assay with SR leukemia was more than 100 µM each time. The TGI with SW-620 colon, in the assay on NCI-H23 lung, with SNB-75 CNS, in the assay on HOP-92 NSCLC and in the assay on HT29 colon was more than 100 µM each time.
Turning to `O=C1C(Cl)N(c2ccc(Cl)cc2)C1c1c[nH]c2ccccc12` (stereo not drawn), the TGI in the assay with RPMI-8226 leukemia is more than 100 µM; in the assay with A549 NSCLC, more than 100 µM; in the assay on SF-539 CNS it was 37.2 µM; in the assay on HCT-116 colon, 28.2 µM; in the assay with OVCAR-3 ovarian it was 36.1 µM; with SK-MEL-2 melanoma, 29.3 µM. For the same compound, the TGI was 39 µM in the assay with NCI-H522 lung; more than 100 µM in the assay with SNB-19 CNS; more than 100 µM in the assay on OVCAR-4 ovarian; 30.1 µM in the assay with NCI-H460 lung; 36 µM with SN12C renal; 39.4 µM in the assay on SR leukemia. The TGI in the assay on SW-620 colon is 68.8 µM; in the assay on NCI-H23 lung, 62.8 µM; in the assay on SNB-75 CNS, more than 100 µM; with HOP-92 NSCLC it was 45.3 µM; in the assay on HT29 colon it was 37.5 µM.
In the case of `O=c1cnn(C2OC(C(O)CO)C(O)C2O)c(=O)[nH]1` (stereo not drawn), the TGI with RPMI-8226 leukemia, in the assay on A549 NSCLC, in the assay on SF-539 CNS, in the assay with HCT-116 colon, with OVCAR-3 ovarian and in the assay on SK-MEL-2 melanoma was more than 100 µM each time. Besides, the TGI in the assay on NCI-H522 lung, with SNB-19 CNS, with OVCAR-4 ovarian, with OVCAR-5 ovarian, in the assay on NCI-H460 lung and in the assay on SN12C renal was more than 100 µM each time. For the same compound, the TGI with SR leukemia, with SW-620 colon, in the assay on NCI-H23 lung, with SNB-75 CNS, with HOP-92 NSCLC and in the assay on HT29 colon was more than 100 µM in each case.
Turning to `C1C2CC3CC1CC(Nc1nc(NC45CC6CC(CC(C6)C4)C5)nc(NC45CC6CC(CC(C6)C4)C5)n1)(C2)C3`, the TGI with RPMI-8226 leukemia, with A549 NSCLC, in the assay on SF-539 CNS, in the assay with HCT-116 colon, with OVCAR-3 ovarian and in the assay on SK-MEL-2 melanoma was more than 100 µM in each case. Also, the TGI in the assay on SNB-19 CNS, in the assay on OVCAR-4 ovarian, in the assay with OVCAR-5 ovarian, with NCI-H460 lung, in the assay on SN12C renal and in the assay with SR leukemia was more than 100 µM each time. Further, the TGI in the assay with A498 renal is more than 100 µM; with SW-620 colon, more than 100 µM; in the assay on NCI-H23 lung it was more than 100 µM; in the assay with SNB-75 CNS it was more than 79.2 µM; with HOP-92 NSCLC, more than 100 µM; with HT29 colon, more than 100 µM.
In the case of `O=c1[nH]c2c(nc1NC13CC4CC(CC(C4)C1)C3)c(=O)oc1ccccc12`, the TGI in the assay with RPMI-8226 leukemia was more than 100 µM; with A549 NSCLC, more than 100 µM; in the assay on SF-539 CNS it was 35.8 µM; in the assay with HCT-116 colon, more than 100 µM; with OVCAR-3 ovarian, more than 100 µM; in the assay on SK-MEL-2 melanoma, more than 100 µM. The TGI with NCI-H522 lung, in the assay with SNB-19 CNS, in the assay with OVCAR-5 ovarian, in the assay with NCI-H460 lung, with SN12C renal and in the assay with SR leukemia was more than 100 µM in each case. Moreover, the TGI in the assay on SW-620 colon, in the assay on NCI-H23 lung, with SNB-75 CNS, with HOP-92 NSCLC and in the assay with HT29 colon was more than 100 µM throughout.
Regarding `CCOC(=O)C1(C#N)C(c2ccccc2)CC(O)(c2ccc(OC)cc2)C(C(=O)c2ccc(OC)cc2)C1c1ccccc1` (stereo not drawn), the TGI in the assay on RPMI-8226 leukemia, in the assay with A549 NSCLC, with HCT-116 colon, with OVCAR-3 ovarian, with SK-MEL-2 melanoma and with NCI-H522 lung was more than 100 µM each time. In addition, the TGI in the assay on SNB-19 CNS, in the assay with OVCAR-4 ovarian, in the assay on OVCAR-5 ovarian, with NCI-H460 lung, with SN12C renal and in the assay on SR leukemia was more than 100 µM throughout. The TGI with SW-620 colon was more than 100 µM; in the assay on NCI-H23 lung, more than 100 µM; with SNB-75 CNS, 95.3 µM; in the assay on HT29 colon, more than 100 µM.
For `COc1ccc(N2C(=O)CC(C3CC(C(C)(C)C)CCC3=O)C2=O)cc1` (stereo not drawn), the TGI in the assay with RPMI-8226 leukemia was more than 100 µM; with A549 NSCLC, more than 100 µM; with SF-539 CNS it was more than 100 µM; in the assay on HCT-116 colon, more than 100 µM; with NCI-H522 lung, 32.9 µM; in the assay on SNB-19 CNS, more than 100 µM. For the same compound, the TGI in the assay with OVCAR-4 ovarian, with NCI-H460 lung, in the assay with SN12C renal, in the assay with SR leukemia, in the assay on SW-620 colon and in the assay with NCI-H23 lung was more than 100 µM in each case. In addition, the TGI in the assay on SNB-75 CNS and with HT29 colon was more than 100 µM in each case.
In the case of `Cc1cc(N)c(C)c2c1[nH]c1ccc(O)cc12`, the TGI in the assay with RPMI-8226 leukemia, in the assay on A549 NSCLC, with SF-539 CNS, with HCT-116 colon, in the assay on OVCAR-3 ovarian and with SK-MEL-2 melanoma was more than 100 µM throughout. The TGI in the assay with NCI-H522 lung was 41.1 µM; in the assay with SNB-19 CNS, more than 100 µM; in the assay with OVCAR-4 ovarian, more than 100 µM; with OVCAR-5 ovarian, more than 100 µM; with NCI-H460 lung, more than 100 µM; in the assay with SN12C renal it was more than 100 µM. Also, the TGI with SR leukemia, in the assay with SW-620 colon, in the assay with NCI-H23 lung and in the assay on HT29 colon was more than 100 µM in each case.
